Reference: patent US6977262B2, “Dihydropyrazolopyridine compounds and pharmaceutical use thereof” (Mitsubishi Pharma Corporation, priority 2001, dated 2005)

For `CCCC1=C(C#N)C(c2cccnc2)c2c[nH]nc2N1` (stereo not shown) [Example 327, 5-Cyano-4,7-dihydro-6-propyl-4-(pyridin-3-yl)-2H-pyrazolo[3,4-b]pyridine], the melting point was 201 °C. For `CCCC1=C(C#N)C(c2ccccc2Cl)c2c(OC(=O)OC(C)(C)C)n[nH]c2N1` (stereo not shown) [Example 328, 3-t-Butoxycarbonyloxy-4-(2-chlorophenyl)-5-cyano-4,7-dihydro-6-propyl-1 H-pyrazolo[3,4-b]pyridine], the melting point was 182 °C. Molecule `COC(CC1=C(C#N)C(c2cccc3nonc23)c2c[nH]nc2N1)OC` (stereo not shown) [Example 329, 4-(2,1,3-Benzoxadiazol-4-yl)-5-cyano-6-(2,2-dimethoxyethyl)-4,7-dihydro-2H-pyrazolo[3,4-b]pyridine] has a melting point of 115 °C. For `CCCC1=C(C#N)C(c2ccccc2Cl)c2c(n[nH]c2CC(OC)OC)N1` (stereo not shown) [Example 330, 4-(2-Chlorophenyl)-5-cyano-4,7-dihydro-3-(2,2-dimethoxyethyl)-6-propyl-2H-pyrazolo[3,4-b]pyridine], the melting point was 180 °C. `CCCC1=C(C#N)C(c2cccc3nocc23)c2c[nH]nc2N1` (stereo not shown) [Example 331, 4-(2,1-Benzoisoxazol-4-yl)-5-cyano-4,7-dihydro-6-propyl-2H-pyrazolo[3,4-b]pyridine] showed a melting point of 239 °C. `CC(C)C1=C(C#N)C(c2cccc3nocc23)c2c[nH]nc2N1` (stereo not shown) [Example 332, 4-(2,1-Benzoisoxazol-4-yl)-5-cyano-4,7-dihydro-6-isopropyl-2H-pyrazolo[3,4-b]pyridine] gave a melting point of 245 °C. In the case of `N#CC1=C(C2CC2)Nc2n[nH]cc2C1c1cccc2nocc12` (stereo not shown) [Example 333, 4-(2,1-Benzoisoxazol-4-yl)-5-cyano-6-cyclopropyl-4,7-dihydro-2H-pyrazolo[3,4-b]pyridine], the melting point is reported as 248 °C. `CC(C)(C)OC(=O)n1cc(C2=C(C#N)C(c3cccc4nonc34)c3c[nH]nc3N2)c2ccccc21` (stereo not shown) [Example 334, 4-(2,1,3-Benzoxadiazol-4-yl)-5-cyano-6-(1-t-butoxycarbonylindol-3-yl)-4,7-dihydro-2H-pyrazolo[3,4-b]pyridine] showed a melting point of 202 °C. Work on `N#CC1=C(c2c[nH]c3ccccc23)Nc2n[nH]cc2C1c1cccc2nonc12` (stereo not shown) [Example 335, 4-(2,1,3-Benzoxadiazol-4-yl)-5-cyano-4,7-dihydro-6-(indol-3-yl)-2H-pyrazolo[3,4-b]pyridine] yielded a melting point of 238 °C. Molecule `CCCC1=C(C#N)C(c2ccccc2Cl)c2c(n[nH]c2C(OC)OC)N1` (stereo not shown) [Example 336, 4-(2-Chlorophenyl)-5-cyano-4,7-dihydro-3-dimethoxymethyl-6-propyl-2H-pyrazolo[3,4-b]pyridine] has a melting point of 212 °C. With `CCCC1=C(C#N)C(c2ccncc2)c2c[nH]nc2N1` (stereo not shown) [Example 337, 5-Cyano-4,7-dihydro-6-propyl-4-(pyridin-4-yl)-2H-pyrazolo[3,4-b]pyridine] the melting point was 224 °C. With `CCCC1=C(C#N)C(c2cccc(C)c2[N+](=O)[O-])c2c[nH]nc2N1` (stereo not shown) [Example 338, 5-Cyano-4,7-dihydro-4-(3-methyl-2-nitrophenyl)-6-propyl-2H-pyrazolo[3,4-b]pyridine] the melting point was 250 °C. In the case of `Cc1cccc(C2C(C#N)=C(C(C)C)Nc3n[nH]cc32)c1[N+](=O)[O-]` (stereo not shown) [Example 339, 5-Cyano-4,7-dihydro-4-(3-methyl-2-nitrophenyl)-6-isopropyl-2H-pyrazolo[3,4-b]pyridine], the melting point is reported as 261 °C. For `Cc1cccc(C2C(C#N)=C(C3CC3)Nc3n[nH]cc32)c1[N+](=O)[O-]` (stereo not shown) [Example 340, 5-Cyano-6-cyclopropyl-4,7-dihydro-4-(3-methyl-2-nitrophenyl)-2H-pyrazolo[3,4-b]pyridine], the melting point was 265 °C. With `CCCC1=C(C#N)C(c2ccccc2Cl)c2c[nH]nc2N1C` (stereo not shown) [Example 346, 4-(2-Chlorophenyl)-5-cyano-7-methyl-6-propyl-4,7-dihydro-2H-pyrazolo[3,4-b]pyridine] the melting point was 170 to 171 °C. `CCCC1=C(C#N)C(c2cccc(C#N)c2Br)c2c[nH]nc2N1C` (stereo not shown) [Example 348, 4-(2-Bromo-3-cyanophenyl)-5-cyano-7-methyl-6-propyl-4,7-dihydro-2H-pyrazolo[3,4-b]pyridine] gave a melting point of 218 to 220 °C. For `C=CCCC(=O)n1ncc2c1NC(CCC)=C(C#N)C2c1ccccc1Cl` (stereo not shown) [Example 357, 4-(2-Chlorophenyl)-5-cyano-4,7-dihydro-1-(4-pentenoyl)-6-propyl-1H-pyrazolo[3,4-b]pyridine], the melting point was 140 °C. In the case of `C=CCCC(=O)n1cc2c(n1)NC(CCC)=C(C#N)C2c1ccccc1Cl` (stereo not shown) [Example 358, 4-(2-Chlorophenyl)-5-cyano-4,7-dihydro-2-(4-pentenoyl)-6-propyl-2H-pyrazolo[3,4-b]pyridine], the melting point is reported as 176 to 177 °C. With `CCCC1=C(C#N)C(c2cccc(C)n2)c2c[nH]nc2N1` (stereo not shown) [Example 359, 5-Cyano-4,7-dihydro-4-(6-methylpyridin-2-yl)-6-propyl-2H-pyrazolo[3,4-b]pyridine] the melting point was 177 to 181 °C. `CCCC1=C(C#N)C(c2cccc(Br)c2)c2c[nH]nc2N1` (stereo not shown) [Example 362, 4-(3-Bromophenyl)-5-cyano-4,7-dihydro-6-propyl-2H-pyrazolo[3,4-b]pyridine] showed a melting point of 202 to 205 °C. Work on `CCCC1=C(C#N)C(c2ccc(F)cc2Cl)c2c[nH]nc2N1` (stereo not shown) [Example 363, 5-Cyano-4,7-dihydro-4-(4-fluoro-2-chlorophenyl)-6-propyl-2H-pyrazolo[3,4-b]pyridine] yielded a melting point of 209 to 212 °C. Molecule `CCCC1=C(C#N)C(c2cccc(N3CCOCC3)c2)c2c[nH]nc2N1` (stereo not shown) [Example 364, 5-Cyano-4,7-dihydro-4-(3-(morpholin-4-yl)phenyl)-6-propyl-2H-pyrazolo[3,4-b]pyridine] has a melting point of 196 to 200 °C. For `CC(C)C1=C(C#N)C(c2cccc(N3CCOCC3)c2)c2c[nH]nc2N1` (stereo not shown) [Example 365, 5-Cyano-4,7-dihydro-4-(3-(morpholin-4-yl)phenyl)-6-isopropyl-2H-pyrazolo[3,4-b]pyridine], the melting point was 254 to 257 °C. In the case of `N#CC1=C(C2CC2)Nc2n[nH]cc2C1c1cccc(N2CCOCC2)c1` (stereo not shown) [Example 366, 5-Cyano-6-cyclopropyl-4,7-dihydro-4-(3-(morpholin-4-yl)phenyl)-2H-pyrazolo[3,4-b]pyridine], the melting point is reported as greater than 260 °C. `CC(C)(C)OC(=O)N1CCC(C2=C(C#N)C(c3cccc4nonc34)c3c[nH]nc3N2)CC1` (stereo not shown) [Example 1001, 4-(2,1,3-Benzoxadiazol-4-yl)-6-(1-t-butoxycarbonylpiperidin-4-yl)-5-cyano-4,7-dihydro-2H-pyrazolo[3,4-b]pyridine] showed a melting point of 226 °C. In the case of `CC(C)(C)OC(=O)N1CCCC(C2=C(C#N)C(c3cccc4nonc34)c3c[nH]nc3N2)C1` (stereo not shown) [Example 1004, 4-(2,1,3-Benzoxadiazol-4-yl)-6-(1-t-butoxycarbonylpiperidin-3-yl)-5-cyano-4,7-dihydro-2H-pyrazolo[3,4-b]pyridine], the melting point is reported as 229 °C. In the case of `N#CC1=C(C2CCCNC2)Nc2n[nH]cc2C1c1cccc2nonc12` (stereo not shown) [Example 1005, 4-(2,1,3-Benzoxadiazol-4-yl)-5-cyano-4,7-dihydro-6-(piperidin-3-yl)-2H-pyrazolo[3,4-b]pyridine], the melting point is reported as 202 °C. In the case of `CN1CCCC(C2=C(C#N)C(c3cccc4nonc34)c3c[nH]nc3N2)C1` (stereo not shown) [Example 1006, 4-(2,1,3-Benzoxadiazol-4-yl)-5-cyano-4,7-dihydro-6-(1-methylpiperidin-3-yl)-2H-pyrazolo[3,4-b]pyridine], the melting point is reported as 228 °C. Work on `CC(C)(C)OC(=O)N1CC=C(C2=C(C#N)C(c3cccc4nonc34)c3c[nH]nc3N2)CC1` (stereo not shown) [Example 1012, 4-(2,1,3-Benzoxadiazol-4-yl)-6-(1-t-butoxycarbonyl-1,2,3,6-tetrahydropyridin-4-yl)-5-cyano-4,7-dihydro-2H-pyrazolo[3,4-b]pyridine] yielded a melting point of 222 °C. `N#CC1=C(C2=CCNCC2)Nc2n[nH]cc2C1c1cccc2nonc12` (stereo not shown) [Example 1013, 4-(2,1,3-Benzoxadiazol-4-yl)-5-cyano-4,7-dihydro-6-(1,2,3,6-tetrahydropyridin-4-yl)-2H-pyrazolo[3,4-b]pyridine] showed a melting point of 180 °C. In the case of `CN1CC=C(C2=C(C#N)C(c3cccc4nonc34)c3c[nH]nc3N2)CC1` (stereo not shown) [Example 1014, 4-(2,1,3-Benzoxadiazol-4-yl)-5-cyano-4,7-dihydro-6-(1-methyl-1,2,3,6-tetrahydropyridin-4-yl)-2H-pyrazolo[3,4-b]pyridine], the melting point is reported as 218 °C. With `CN(CCC1=C(C#N)C(c2cccc3nonc23)c2c[nH]nc2N1)C(=O)OC(C)(C)C` (stereo not shown) [Example 1015, 4-(2,1,3-Benzoxadiazol-4-yl)-6-(2-(N-t-butoxycarbonyl-N-methylamino)ethyl)-5-cyano-4,7-dihydro-2H-pyrazolo[3,4-b]-pyridine] the melting point was 240 °C. For `CNCCC1=C(C#N)C(c2cccc3nonc23)c2c[nH]nc2N1` (stereo not shown) [Example 1016, 4-(2,1,3-Benzoxadiazol-4-yl)-5-cyano-4,7-dihydro-6-(2-(N-methylamino)ethyl)-2H-pyrazolo[3,4-b]pyridine], the melting point was 174 °C. `CC(C)(C)OC(=O)NCCC1=C(C#N)C(c2cccc3nonc23)c2c[nH]nc2N1` (stereo not shown) [Example 1017, 4-(2,1,3-Benzoxadiazol-4-yl)-6-(2-(N-t-butoxycarbonyl-amino)ethyl)-5-cyano-4,7-dihydro-2H-pyrazolo[3,4-b]pyridine] gave a melting point of 231 °C. `CN(C)CCC1=C(C#N)C(c2cccc3nonc23)c2c[nH]nc2N1` (stereo not shown) [Example 1019, 4-(2,1,3-Benzoxadiazol-4-yl)-5-cyano-4,7-dihydro-6-(2-(N,N-dimethylamino)ethyl)-2H-pyrazolo[3,4-b]pyridine] showed a melting point of 215 °C. For `CN(CC1=C(C#N)C(c2cccc3nonc23)c2c[nH]nc2N1)C(=O)OC(C)(C)C` (stereo not shown) [Example 1020, 4-(2,1,3-Benzoxadiazol-4-yl)-6-((N-t-butoxycarbonyl-N-methylamino)methyl)-5-cyano-4,7-dihydro-2H-pyrazolo[3,4-b]-pyridine], the melting point was 207 °C. With `N#CC1=C(C2CCN(C(=O)c3ccccc3)CC2)Nc2n[nH]cc2C1c1cccc2nonc12` (stereo not shown) [Example 1026, 4-(2,1,3-Benzoxadiazol-4-yl)-6-(1-benzoylpiperidin-4-yl)-5-cyano-4,7-dihydro-2H-pyrazolo[3,4-b]pyridine] the melting point was 228 °C.
